Source: the NIST ThermoML archive (doi:10.1016/j.fluid.2011.06.020)

Conditions: Liquid, Closed cell (Static) method

CCOC(=O)CCC(=O)O [4-ethoxy-4-oxobutanoic acid]
Conditions	vapor or sublimation pressure [kPa]
417.7 K	1.587
421.2 K	2.089
425.1 K	2.591
428.5 K	3.094
433 K	3.596
435.6 K	4.098
436.7 K	4.601
439.8 K	5.103
440.3 K	5.605
443 K	6.107
444.3 K	6.61
445.9 K	7.112
447.6 K	7.614
449.1 K	8.117
450.5 K	8.619
452.1 K	9.121
453.2 K	9.624
454.7 K	10.13
455.7 K	10.63
456.5 K	11.13
457.2 K	11.63
458.2 K	12.14
458.4 K	12.64
459.8 K	13.14
460.1 K	13.64
460.3 K	14.14
461.1 K	14.65
462 K	15.15
463.3 K	15.65
463.8 K	16.15
464.2 K	16.66
464.5 K	17.16
465.2 K	17.66
465.8 K	18.16
466.7 K	18.67
467.3 K	19.17
467.8 K	19.67
468.3 K	20.17
468.8 K	20.67
469.5 K	21.18
469.7 K	21.68
469.8 K	22.18
470.1 K	22.68
470.3 K	23.19
470.4 K	23.69
470.5 K	24.19
471.1 K	24.69
471.4 K	25.2
471.9 K	25.7
